Data: EP0029082B1, “1-Benzylated ergometrine derivatives, process for their preparation and pharmaceutical compositions containing them” (VEB Arzneimittelwerk Dresden, priority 1979, dated 1981)

Tested on: Serotoninödem an der Ratte
Assay: Antiserotonin effect on serotonin-induced oedema in the rat (set-up according to Winter, Risley and Nuss)
Type: in vivo
Settings: dose 0,005 mg/kg i. p., mean inhibition versus control group, values statistically significant for A and B; for prozentuale Hemmung nach Serotoningabe (%) nach 30 min: 30 min after serotonin; for prozentuale Hemmung nach Serotoningabe (%) nach 90 min: 90 min after serotonin; for prozentuale Hemmung nach Serotoningabe (%) nach 150 min: 150 min after serotonin; for prozentuale Hemmung nach Serotoningabe (%) nach 210 min: 210 min after serotonin; for prozentuale Hemmung nach Serotoningabe (%) nach 270 min: 270 min after serotonin

| SMILES | prozentuale Hemmung nach Serotoningabe (%) nach 30 min | prozentuale Hemmung nach Serotoningabe (%) nach 90 min | prozentuale Hemmung nach Serotoningabe (%) nach 150 min | prozentuale Hemmung nach Serotoningabe (%) nach 210 min | prozentuale Hemmung nach Serotoningabe (%) nach 270 min |
| --- | --- | --- | --- | --- | --- |
| CC[C@@H](CO)NC(=O)[C@@H]1C=C2c3cccc4c3c(cn4C)C[C@H]2N(C)C1 [Methysergid, reference compound] | 68% | 60% | 36% | 34% | 46% |
| C[C@@H](CO)NC(=O)[C@@H]1C=C2c3cccc4c3c(cn4Cc3cccc(F)c3)C[C@H]2N(C)C1 [Verb. A, 1-(3'-Fluorbenzyl)-ergometrindimaleinat] | 44% | 50% | 36% | 55% | 56% |
| C[C@@H](CO)NC(=O)[C@@H]1C=C2c3cccc4c3c(cn4Cc3ccc(Cl)cc3)C[C@H]2N(C)C1 [Verb. B, 1-(4'-Chlorbenzyl)-ergometrindimaleinat] | 44% | 45% | 46% | 61% | 58% |
